Reference: patent US9926321B2, “Hsp90 inhibitors” (Sloan-Kettering Institute for Cancer Research, priority 2011, dated 2018)

Tests used:
[1] = system: Hsp90 (SKBr3 lysate); experiment: Hsp90 binding assay (fluorescence polarization, cy3B-GM displacement), human cancer cell lysate; conditions: lysate not given
Description: (§1) For the binding studies, fluorescence polarization (FP) assays w-re performed similarly as was previously reported [Du et al. (2007) “High-throughput screening fluorescence polarization assay for tumor-specific Hsp90” J. Biomol. Screen 12:915-924]. Briefly, FP measurements were performed on an Analyst GT instrument (Molecular Devices, Sunnyvale, Calif.). Measurements were taken in black 96-well microtiter plates (Corning #3650) where both the excitation and the emission occurred from the top of the well. A stock of 10 μM cy3B-GM was prepared in DMSO and diluted with HFB buffer (20 mM Hepes (K), pH 7.3, 50 mM KCl, 2 mM DTT, 5 mM MgCl2, 20 mM Na2MoO4, and 0.01% NP40 with 0.1 mg/mL BGG). The test compounds were dissolved in DMSO and added at several concentrations to the HFB assay buffer containing both 6 nM cy3B-GM and transgenic mouse brain lysate (6 μg JNPL3 lysate) or human cancer cell lysate (3 μg SKBr3 lysate) in a final volume of 100 μL. Drugs were added to triplicate wells. Free cy3B-GM (6 nM cy3B-GM), bound cy3B-GM (6 nM cy3B-GM+lysate, as indicated above) and buffer only containing wells (background) were included as controls in each plate. Plates were incubated on a shake at 4° C., and polarization values measured at 24 h. Percentage inhibition was calculated as follows: (% Control)=100−((mPc−mPf)/(mPb−mPf))×100, where mPc is the recorded mP from compound wells, mPf is the average recorded mP from cy3B-GM-only wells, and mPb is the average recorded mP from wells containing both cy3B-GM and lysate, and plotted against values of competitor concentrations. The inhibitor concentration at which 50% of bound cy3B-GM was displaced was obtained by fitting the data using a nonlinear regression analysis as implemented in Prism 4.0 (GraphPad Software).

[2] = system: Hsp90; experiment: as above; conditions: fluorescence polarization, cy3B-GM displacement; the table does not say which lysate (SKBr3 or JNPL3)
Description: as §1

[3] = target: T1, hERG (Homo sapiens, UniProt Q12809); experiment: hERG fluorescence polarization assay (Predictor hERG kit); format: binding; conditions: concentration displacing 50% of Predictor hERG tracer red; read-out: hERG assay result
T1 construct: purchased Invitrogen PV5365
T1 sequence (Q12809 whole entry): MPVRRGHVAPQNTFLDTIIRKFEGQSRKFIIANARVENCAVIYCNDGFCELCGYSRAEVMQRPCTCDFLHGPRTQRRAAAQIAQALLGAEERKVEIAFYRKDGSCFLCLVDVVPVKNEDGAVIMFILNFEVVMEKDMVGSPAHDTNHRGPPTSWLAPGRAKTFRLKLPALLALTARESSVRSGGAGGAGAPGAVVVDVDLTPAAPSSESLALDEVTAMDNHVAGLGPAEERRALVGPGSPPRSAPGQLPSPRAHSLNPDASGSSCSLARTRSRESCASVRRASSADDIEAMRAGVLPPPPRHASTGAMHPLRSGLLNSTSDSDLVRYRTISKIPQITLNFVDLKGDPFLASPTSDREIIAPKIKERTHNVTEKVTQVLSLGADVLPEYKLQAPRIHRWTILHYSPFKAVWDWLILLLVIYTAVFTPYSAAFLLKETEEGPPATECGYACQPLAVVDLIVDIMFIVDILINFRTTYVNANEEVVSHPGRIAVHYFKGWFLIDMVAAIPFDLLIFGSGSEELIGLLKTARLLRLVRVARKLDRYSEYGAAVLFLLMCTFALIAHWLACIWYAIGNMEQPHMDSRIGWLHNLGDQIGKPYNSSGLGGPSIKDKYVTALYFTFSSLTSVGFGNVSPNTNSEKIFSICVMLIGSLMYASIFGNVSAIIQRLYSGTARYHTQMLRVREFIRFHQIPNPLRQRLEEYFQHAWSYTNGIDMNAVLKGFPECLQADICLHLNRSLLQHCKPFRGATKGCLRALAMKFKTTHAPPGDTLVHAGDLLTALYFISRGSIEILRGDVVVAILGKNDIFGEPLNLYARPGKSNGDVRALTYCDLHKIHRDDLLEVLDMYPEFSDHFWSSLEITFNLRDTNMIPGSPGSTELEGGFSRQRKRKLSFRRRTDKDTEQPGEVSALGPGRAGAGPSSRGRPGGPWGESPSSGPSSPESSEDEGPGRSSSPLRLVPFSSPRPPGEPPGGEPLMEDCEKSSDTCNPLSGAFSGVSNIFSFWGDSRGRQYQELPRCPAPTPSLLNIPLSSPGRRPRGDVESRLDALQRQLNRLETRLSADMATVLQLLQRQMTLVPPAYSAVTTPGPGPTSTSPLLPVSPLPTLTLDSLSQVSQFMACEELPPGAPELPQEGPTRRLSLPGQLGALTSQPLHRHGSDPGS
Description: hERG Fluorescence Polarization Assay:
Following the manufacturer's protocol, the hERG assay was performed using Predictor hERG Fluorescence Polarization Assay kit (catalog no. PV5365) from Invitrogen. Briefly, FP measurements were performed on an Analyst GT instrument (Molecular Devices, Sunnyvale, Calif.). Measurements were taken in black 384-well plates (Corning #3677), where both the excitation and the emission occurred from the top of the well. The test compounds were dissolved in DMSO and added at several concentrations to the Predictor hERG FP assay buffer containing 4 nM Predictor hERG tracer red and 10 μL of Predictor hERG membrane in a final volume of 20 μL. Drugs were added to triplicate wells. E-4031 as positive control was included in each plate. Plates were then kept on a shaker at room temperature and polarization values were measured after 4 hrs. The inhibition concentration at which 50% of tracer red gets displaced was obtained by fitting the data using a nonlinear regression analysis as implemented in Prism 5.0 (GraphPad Software).

SMILES | Hsp90 binding affinity (in words, referring to Table 12) [1] | IC50 [2] | IC50 [3]
CC(C)(C)NS(=O)(=O)CCCn1c(Sc2cc3c(cc2I)OCO3)nc2c(N)ncnc21 [Compound 1A-19, 3-[6-Amino-8-(6-iodo-benzo[1,3]dioxol-5-ylsulfanyl)-purin-9-yl]-propane-1-sulfonic acid tert-butylamide] | high level of binding affinity | 44 nM | 
CC(C)(C)[S+]([O-])NCCn1c(Sc2cc3c(cc2I)CCC3)nc2c(N)ncnc21 (stereo not shown) [Compound 3A-12, 2-Methyl-propane-2-sulfinic acid {2-[6-amino-8-(6-iodo-indan-5-ylsulfanyl)-purin-9-yl]-ethyl}-amide] | high level of binding affinity |  | 
CC(C)(C)S(=O)(=O)NCCn1c(Sc2cc3c(cc2I)OCO3)nc2c(N)ncnc21 [Compound 1A-11, 2-Methyl-propane-2-sulfonic acid {2-[6-amino-8-(6-iodo-benzo[1,3]dioxol-5-ylsulfanyl)-purin-9-yl]-ethyl}-amide] | high level of binding affinity | 71.5 nM | 
CS(=O)(=O)NCCCn1c(Sc2cc3c(cc2I)OCO3)nc2c(N)ncnc21 [Compound 1A-24, N-{3-[6-Amino-8-(6-iodo-benzo[1,3]dioxol-5-ylsulfanyl)-purin-9-yl]-propyl}-methanesulfonamide] | high level of binding affinity | 11.5 nM | 
CC(C)NCCCn1c(Sc2cc3c(cc2I)OCO3)nc2c(N)ncnc21 [PU-H71, reference compound] |  |  | 1000 nM
CC(C)(C)[S+]([O-])NCCCn1c(Sc2cc3c(cc2I)CCO3)nc2c(N)ncnc21 (stereo not shown) [Compound 2A-26, 2-Methyl-propane-2-sulfinic acid {3-[6-amino-8-(5-iodo-2,3-dihydro-benzofuran-6-ylsulfanyl)-purin-9-yl]-propyl}-amide] | high level of binding affinity | 17 nM | 
CC(C)(C)S(=O)(=O)NCCn1c(Sc2cc3c(cc2I)CCO3)nc2c(N)ncnc21 [Compound 2A-11, 2-Methyl-propane-2-sulfonic acid {2-[6-amino-8-(5-iodo-2,3-dihydro-benzofuran-6-ylsulfanyl)-purin-9-yl]-ethyl}-amide] | high level of binding affinity | 51 nM | 
CC(C)(C)[S+]([O-])NCCn1c(Cc2cc3c(cc2I)OCO3)nc2c(N)nc(F)nc21 (stereo not shown) [Compound 4A-12, N-(2-(6-amino-2-fluoro-8-((6-iodobenzo[d][1,3]dioxol-5-yl)methyl)-9H-purin-9-yl)ethyl)-2-methylpropane-2-sulfinamide] |  | 29.6 nM | 
CC(C)(C)S(=O)(=O)NCCn1c(Sc2cc3c(cc2I)CCC3)nc2c(N)ncnc21 [Compound 3A-11, 2-Methyl-propane-2-sulfonic acid {2-[6-amino-8-(6-iodo-indan-5-ylsulfanyl)-purin-9-yl]-ethyl}-amide] | high level of binding affinity | 68 nM | 
CS(=O)(=O)NCCn1c(Sc2cc3c(cc2I)OCO3)nc2c(N)ncnc21 [Compound 1A-10, N-{2-[6-Amino-8-(6-iodo-benzo[1,3]dioxol-5-ylsulfanyl)-purin-9-yl]-ethyl}-methanesulfonamide] | high level of binding affinity | 6.3 nM | 
CC(C)(C)[S+]([O-])NCCCn1c(Sc2cc3c(cc2I)CCC3)nc2c(N)ncnc21 (stereo not shown) [Compound 3A-26, 2-Methyl-propane-2-sulfinic acid {3-[6-amino-8-(6-iodo-indan-5-ylsulfanyl)-purin-9-yl]-propyl}-amide] | high level of binding affinity | 20.1 nM | 
CC(C)(C)NS(=O)(=O)CCn1c(Sc2cc3c(cc2I)OCO3)nc2c(N)ncnc21 [Compound 1A-5, 2-[6-Amino-8-(6-iodo-benzo[1,3]dioxol-5-ylsulfanyl)-purin-9-yl]-ethanesulfonic acid tert-butylamide] | high level of binding affinity | 78 nM | 
NC(=O)CCCCCn1c(Sc2cc3c(cc2I)OCO3)nc2c(N)ncnc21 [Compound 1A-50, 6-(6-amino-8-((6-iodobenzo[d][1,3]dioxol-5-yl)thio)-9H-purin-9-yl)hexanamide] |  | 76.5 nM | 
C#Cc1cc2c(cc1Sc1nc3c(N)ncnc3n1CCCNS(C)(=O)=O)CCC2 [Compound 3A-43, N-{3-[6-Amino-8-(6-ethynyl-indan-5-ylsulfanyl)-purin-9-yl]-propyl}-methanesulfonamide] | high level of binding affinity | 37.4 nM | 
CS(=O)(=O)NCCCn1c(Sc2cc3c(cc2I)CCC3)nc2c(N)ncnc21 [Compound 3A-24, N-{3-[6-Amino-8-(6-iodo-indan-5-ylsulfanyl)-purin-9-yl]-propyl}-methanesulfonamide] | high level of binding affinity | 8.1 nM | 
CC(C)(C)[S+]([O-])NCCn1c(Sc2cc3c(cc2I)CCO3)nc2c(N)ncnc21 (stereo not shown) [Compound 2A-12, 2-Methyl-propane-2-sulfinic acid {2-[6-amino-8-(5-iodo-2,3-dihydro-benzofuran-6-ylsulfanyl)-purin-9-yl]-ethyl}-amide] | high level of binding affinity | 68 nM | 
CN(C)c1cc2c(cc1Sc1nc3c(N)ncnc3n1CCCNS(=O)(=O)C1CC1)OCO2 [Compound 1G-28, N-(3-(6-amino-8-((6-(dimethylamino)benzo[d] [1,3]dioxol-5-yl)thio)-9H-purin-9-yl)propyl)cyclopropane-sulfonamide] | high level of binding affinity | 22 nM | 
CC(C)CS(=O)(=O)NCCCn1c(Sc2cc3c(cc2I)OCO3)nc2c(N)ncnc21 [Compound 1A-27, 2-Methyl-propane-1-sulfonic acid {3-[6-amino-8-(6-iodo-benzo[1,3]dioxol-5-ylsulfanyl)-purin-9-yl]-propyl}-amide] |  | 64 nM | 
Nc1ncnc2c1nc(Sc1cc3c(cc1I)OCO3)n2CCCNS(=O)(=O)C1CC1 [Compound 1A-28, Cyclopropanesulfonic acid {3-[6-amino-8-(6-iodo-benzo[1,3]dioxol-5-ylsulfanyl)-purin-9-yl]-propyl}-amide] |  | 19.7 nM | 
CS(=O)(=O)NCCn1c(Sc2cc3c(cc2I)CCC3)nc2c(N)ncnc21 [Compound 3A-10, N-{2-[6-Amino-8-(6-iodo-indan-5-ylsulfanyl)-purin-9-yl]-ethyl}-methanesulfonamide] | high level of binding affinity | 3.5 nM | 
Nc1ncnc2c1nc(Sc1cc3c(cc1I)CCO3)n2CCCNC(=O)C1CC1 [Compound 2A-45, Cyclopropanecarboxylic acid {3-[6-amino-8-(5-iodo-2,3-dihydro-benzufuran-6-ylsulfanyl)-purin-9-yl]-propyl}-amide] | high level of binding affinity | 11.8 nM | 
CC(=O)OC(C)(C)C(=O)NCCCn1c(Sc2cc3c(cc2I)OCO3)nc2c(N)ncnc21 [Compound 1A-47, 1-((3-(6-Amino-8-((6-iodobenzo[d][1,3]dioxol-5-yl)thio)-9H-purin-9-yl)propyl)amino)-2-methyl-1-oxopropan-2-yl acetate] |  | 16.5 nM | 
CC(C)C(=O)NCCCn1c(Sc2cc3c(cc2I)OCO3)nc2c(N)ncnc21 [Compound 1A-44, N-(3-(6-Amino-8-((6-iodobenzo[d][1,3]dioxol-5-yl)thio)-9H-purin-9-yl)propyl)isobutyramide] |  | 68 nM | 
COc1ccc(I)c(Sc2nc3c(N)ncnc3n2CCCNC(=O)C(C)(C)C)c1 [Compound 1A-49, N-(3-(6-amino-8-((2-iodo-5-methoxyphenyl)thio)-9H-purin-9-yl)propyl)pivalamide] |  | 28.3 nM | 
CC(C)(C)S(=O)(=O)NCCCn1c(Sc2cc3c(cc2I)OCO3)nc2c(N)ncnc21 [Compound 1A-25, 2-Methyl-propane-2-sulfonic acid {3-[6-amino-8-(6-iodo-benzo[1,3]dioxol-5-ylsulfanyl)-purin-9-yl]-propyl}-amide] |  | 24 nM | 
